Measurements reported in patent US7375083B2, “Pharmaceutical compositions for prevention of overdose or abuse” (Shire LLC, priority 2003, dated 2008).

Experiments:
[1] = Kitchen tests: release of amphetamine by water, acid, base and heat; details: heated to boiling for 20-60 minutes
[2] = in vivo; cited from earlier work
[3] = Oral bioavailability of hydrocodone conjugates in rats, LC/MS/MS; details: male, Sprague-Dawley, rat, plasma, po
[4] = Intranasal bioavailability of hydrocodone conjugates in rats, LC/MS/MS; details: male, Sprague-Dawley, rat, plasma, 1 mg/kg
[5] = Intravenous bioavailability of hydrocodone conjugates in rats, LC/MS/MS
[6] = Oral plasma levels of oxycodone conjugates in rats, ELISA; details: oral 2 mg/kg
[7] = Intranasal plasma levels of oxycodone conjugates in rats, ELISA; details: intranasal 2 mg/kg
[8] = intravenous, 1 mg/kg hydrocodone base content
[9] = male, Sprague-Dawley, rat, plasma, iv, 1 mg/kg

CC(Cc1ccccc1)NC(=O)CNC(=O)CNC(=O)CN (stereo not drawn) [Gly3-Amp, 2-Amino-N-({[(1-methyl-2-phenyl-ethylcarbomyl)-methyl]-carbomyl}-methyl)-acetamide]
amphetamine detected after treatment: Baking Powder [1]: 0%
amphetamine detected after treatment: Baking Soda [1]: 0%
amphetamine detected after treatment: Tap Water [1]: 0%
amphetamine detected after treatment: Vinegar [1]: 0%

COc1ccc2c3c1O[C@H]1C(=O)CC[C@H]4[C@@H](C2)N(C)CC[C@]314 [Hydrocodone, reference compound]
Therapeutic plasma concentration [2]: 1 to 30 ng/mL
Toxic plasma concentration [2]: greater than 100 ng/mL
AUC ([3]; 1 mg/kg): 45.1 ng·h/mL
Cmax ([3]; 1 mg/kg): 114 ng/mL
concentration at 0 h ([3]; 1 mg/kg): 0 ng/mL
concentration at 0.1 h ([3]; 1 mg/kg): 114 ng/mL
concentration at 0.5 h ([3]; 1 mg/kg): 14.3 ng/mL
concentration at 1 h ([3]; 1 mg/kg): 7 ng/mL
concentration at 2 h ([3]; 1 mg/kg): 2.6 ng/mL
concentration at 4 h ([3]; 1 mg/kg): 1 ng/mL
AUC ([3]; 2 mg/kg): 38.2 ng·h/mL
Cmax ([3]; 2 mg/kg): 60.3 ng/mL
concentration at 0 h ([3]; 2 mg/kg): 0 ng/mL
concentration at 0.1 h ([3]; 2 mg/kg): 60.3 ng/mL
concentration at 0.5 h ([3]; 2 mg/kg): 15.6 ng/mL
concentration at 1 h ([3]; 2 mg/kg): 12.9 ng/mL
concentration at 2 h ([3]; 2 mg/kg): 3.4 ng/mL
concentration at 4 h ([3]; 2 mg/kg): 1.3 ng/mL
AUC ([3]; 5 mg/kg): 234 ng·h/mL
Cmax ([3]; 5 mg/kg): 629 ng/mL
concentration at 0 h ([3]; 5 mg/kg): 0 ng/mL
concentration at 0.1 h ([3]; 5 mg/kg): 629 ng/mL
concentration at 0.5 h ([3]; 5 mg/kg): 74.3 ng/mL
concentration at 1 h ([3]; 5 mg/kg): 80.8 ng/mL
concentration at 2 h ([3]; 5 mg/kg): 18.4 ng/mL
concentration at 4 h ([3]; 5 mg/kg): 4.9 ng/mL
AUC ([3]; 25 mg/kg): 419 ng·h/mL
Cmax ([3]; 25 mg/kg): 409 ng/mL
concentration at 0 h ([3]; 25 mg/kg): 0 ng/mL
concentration at 0.1 h ([3]; 25 mg/kg): 409 ng/mL
concentration at 0.5 h ([3]; 25 mg/kg): 154 ng/mL
concentration at 1 h ([3]; 25 mg/kg): 86.2 ng/mL
concentration at 2 h ([3]; 25 mg/kg): 83.3 ng/mL
concentration at 4 h ([3]; 25 mg/kg): 57.8 ng/mL
AUC ([4]; iv): 74.7 ng·h/mL
Cmax ([4]; iv): 543 ng/mL
concentration at 0 min ([4]; other: intranasal): 0 ng/mL
concentration at 5 min ([4]; other: intranasal): 441 ng/mL
concentration at 15 min ([4]; other: intranasal): 543 ng/mL
concentration at 30 min ([4]; other: intranasal): 227 ng/mL
concentration at 60 min ([4]; other: intranasal): 96 ng/mL
HC (hydrocodone) AUC, Percent relative to hydrocodone bitartrate [5, 8]: 100%
HC (hydrocodone) Cmax, Percent relative to hydrocodone bitartrate [5, 8]: 100%
AUC [5, 9]: 24.1 ng·h/mL
Cmax [5, 9]: 43 ng/mL

COc1ccc2c3c1O[C@H]1C(OC(=O)[C@@H](NC(=O)[C@@H]4CCCN4C(=O)[C@@H](N)CCC(=O)O)C(C)C)=CC[C@@]4(OC(=O)[C@@H](NC(=O)[C@@H]5CCCN5C(=O)[C@@H](N)CCC(=O)O)C(C)C)[C@@H](C2)N(C)CC[C@]314 [[Glu-Pro-Val]2-OC]
% AUC [6]: 142%
% Cmax [6]: 134%
% AUC [7]: 56%
% Cmax [7]: 65%

COc1ccc2c3c1O[C@H]1C(OC(=O)[C@@H](NC(=O)[C@H](Cc4ccc(O)cc4)NC(=O)[C@@H](N)CCC(=O)O)C(C)C)=CC[C@@]4(OC(=O)[C@@H](NC(=O)[C@H](Cc5ccc(O)cc5)NC(=O)[C@@H](N)CCC(=O)O)C(C)C)[C@@H](C2)N(C)CC[C@]314 [[Glu-Tyr-Val]2-OC]
% AUC [6]: 115%
% Cmax [6]: 103%
% AUC [7]: 18%
% Cmax [7]: 20%

COc1ccc2c3c1O[C@H]1C(OC(=O)[C@@H](NC(=O)[C@H](CCC(=O)O)NC(=O)CN)C(C)C)=CC[C@@]4(OC(=O)[C@@H](NC(=O)[C@H](CCC(=O)O)NC(=O)CN)C(C)C)[C@@H](C2)N(C)CC[C@]314 [[Gly-Glu-Val]2-OC]
% AUC [6]: 93%
% Cmax [6]: 61%
% AUC [7]: 29%
% Cmax [7]: 48%

COc1ccc2c3c1O[C@H]1C(OC(=O)[C@@H](NC(=O)[C@H](Cc4ccc(O)cc4)NC(=O)CN)C(C)C)=CC[C@@]4(OC(=O)[C@@H](NC(=O)[C@H](Cc5ccc(O)cc5)NC(=O)CN)C(C)C)[C@@H](C2)N(C)CC[C@]314 [[Gly-Tyr-Val]2-OC]
% AUC [6]: 92%
% Cmax [6]: 99%
% AUC [7]: 56%
% Cmax [7]: 54%

CC[C@H](C)[C@H](N)C(=O)N[C@@H](Cc1ccc(O)cc1)C(=O)N[C@H](C(=O)OC1=CC[C@@]2(OC(=O)[C@@H](NC(=O)[C@H](Cc3ccc(O)cc3)NC(=O)[C@@H](N)[C@@H](C)CC)C(C)C)[C@H]3Cc4ccc(OC)c5c4[C@@]2(CCN3C)[C@H]1O5)C(C)C [[Ile-Tyr-Val]2-OC]
% AUC [6]: 71%
% Cmax [6]: 82%
% AUC [7]: 3%
% Cmax [7]: 4%
